In US20230139944A1, “TARGETING ALPHA3BETA1 INTEGRIN FOR TREATMENT OF CANCER AND OTHER DISEASES” (Board of Regents, The University of Texas System, priority 2019, published 2023):

Tests used:
[1] = system: activation of FAK, AKT, and ERK in KPPC; Col1^pdxKO cancer cells; assay: Col1 homotrimer-induced pro-survival signaling examined by Western blotting; format: cell-based, mouse; conditions: VS-4718 1 μM, 16 hours, col1 homotrimers 50 μg/mL
Method: FIGS. 1A-1D. Type I collagen homotrimers induce pro-survival signaling through α3β1 integrin. KPPC; Col1^pdxKO cancer cells were transfected with siRNAs of DDR1 (A,B), integrin β1 (C), or integrin α3 (D). Cells were then incubated with DMEM medium with 1% FBS for 6 hours before the treatment with col1 homotrimers or heterotrimers (50 μg/mL) for 16 hours. Cells were harvested, lysed, and examined for indicated proteins by Western blotting.
(§1) FIGS. 2A-2H. Type I collagen homotrimers induce persistent proliferation signals via integrins. (A,B) KPPC; Col1^pdxKO cancer cells were transfected with siRNAs of integrins β1 (A), α1, α2, or α3 (B). Cells were then incubated with DMEM medium with 1% FBS for 6 hours before the treatment with col1 homotrimers or heterotrimers (50 μg/mL) for 16 hours. Cells were harvested, lysed, and examined by Western blotting. (C) Expression levels of selected integrin subunits in KPPC; Col1^pdxKO cancer cells. (D) Expression levels of selected integrin subunits human PDAC cell lines (Panc1, BxPC3, MiaPaca2, PSN1, HPAC, CAPAN1) based on RNA-seq data from the Broad Institute Cancer Cell Line Encyclopedia (CCLE) database. RMA (Robust Multi-array Average algorithm) normalization was used and data are the log 2 gene expression signal. […] Percent area of ADM and PanIN lesions was quantified. * P<0.05. […]

FAK and PYK2 = assay: Col1 homotrimer-induced signaling with FAK inhibitor, Western blotting; format: cell-based, mouse; conditions: VS-4718 1 μM, 16 hours, KPPC; Col1^pdxKO cancer cells, col1 homotrimers 50 μg/mL
[2] = system: KPPC mice (ADM and PanIN lesions); assay: FAK inhibitor (FAKi) treatment in vivo, H&E-stained pancreas sections; parameters: species or system mouse; conditions: oral gavage 50 mg/kg twice per day for 7 days
Method: as §1, with “signal. (E) Expression profile of integrin α3 (Itga3) among various cell clusters from KPPC tumors, as shown in t-SNE plot using the single cell RNA sequencing analysis. (F) Representative images of integrin α3 IHC staining on KPPC tumor sections. Scale bar: 100 μm. (G) KPPC; Col1^pdxKO cancer cells growing in 6-well plates were cultured with regular medium (DMEM with 10% FBS) to reach 60% confluence.” for “signal.”

CNC(=O)c1ccccc1Nc1cc(Nc2ccc(N3CCOCC3)cc2OC)ncc1C(F)(F)F [VS-4718]
col1 homotrimer induced activation of FAK, AKT, and ERK [1]: abrogated
inhibition of FAK and PYK2 (FAK and PYK2): inhibited FAK and PYK2
early PanIN progression (percent area of ADM and PanIN lesions) [2]: inhibited early PanIN progression
